Measured values reported in ChEMBL document CHEMBL1136559, “Discovery, SAR, synthesis, pharmacokinetic and biochemical characterization of A-192411: a novel fungicidal lipopeptide-(I)” (Bioorg Med Chem Lett, 2003).
In brackets after ≈: the same amount, converted by molar mass. Starred links: 1 amine or outer side, 2 acyl side, 3 side chain; linkers in the order of their positions; H or OH if unused. Positions of bridges follow the written chain, without caps; N, C: chain ends. Non-standard residues stand in square brackets, D forms with d. Residues, ends and D or L forms follow the SMILES beside them. *: point of attachment. pTerphenylCO(4''-OnC5H11) = CCCCCOc1ccc(-c2ccc(-c3ccc(C(=O)*)cc3)cc2)cc1; Pro(cis-4-guanidino) = NC(N)=N[C@@H]1CN[C@H](C(=O)O)C1; hTyr(3-COCH2NH2) = NCC(=O)c1cc(CC[C@H](N)C(=O)O)ccc1O; X7 = CCCCCCCCOc1ccc(-c2ccc(-c3ccc(C(=O)*)cc3)cc2)cc1; X3 = CCCCCCCCOc1ccc(N2CCN(c3ccc(C(=O)*)cc3)CC2)cc1; X5 = CCCCCCCCN1CCN(c2ccc(-c3ccc(C(=O)*)cc3)cc2)CC1; X6 = NCC(=O)[C@H]1C[C@@H](C(=O)[*:2])N([*:1])C1; Pro(4S-NH2) = N[C@@H]1CN[C@H](C(=O)O)C1; Hyp = O=C(O)[C@@H]1C[C@@H](O)CN1; Orn = NCCC[C@H](N)C(=O)O

Columns and labels:
Assay type in all cases: functional
Candida albicans [1] = test: Antifungal activity against Candida albicans CAF-2; details: Candida albicans; read-out: MIC
Aspergillus niger = test: Antifungal activity against Aspergillus niger ATCC 16404; details: Aspergillus niger, ATCC 16404; read-out: MIC
Candida albicans [2] = test: Antifungal activity against Candida albicans ATCC 38247
Naganishia albida = test: Antifungal activity against Cryptococcus albidus ATCC 34140; details: Naganishia albida, ATCC 34140; read-out: MIC
Candida albicans [3] = test: Antifungal activity against Candida albicans ATCC 62376; details: Candida albicans, ATCC 62376; read-out: MIC
Candida albicans [4] = test: Antifungal activity against Candida albicans ATCC 10231
Nakaseomyces glabratus = test: Antifungal activity against Torulopsis glabrata ATCC 15545; details: Nakaseomyces glabratus, ATCC 15545; read-out: MIC
Candida albicans [5] = test: Antifungal activity against Candida albicans 579A; details: Candida albicans; read-out: MIC
Candida albicans [6] = test: Antifungal activity against Candida albicans CCH 442
Kluyveromyces marxianus = test: Antifungal activity against Candida kefyr ATCC 28838; details: Kluyveromyces marxianus, ATCC 28838; read-out: MIC
[Candida] zeylanoides = Antifungal activity against Candida zeylanoides NRRL Y-112
[7] = Candida albicans, ATCC 38247, read-out: MIC
[8] = Candida albicans, ATCC 10231, read-out: MIC
[9] = Candida albicans, read-out: MIC
[10] = Dujonia zeylanoides, read-out: MIC

Row | SMILES | MIC (Candida albicans [1]) | MIC (Aspergillus niger) | MIC (Candida albicans [2]; [7]) | MIC (Naganishia albida) | MIC (Candida albicans [3]) | MIC (Candida albicans [4]; [8]) | MIC (Nakaseomyces glabratus) | MIC (Candida albicans [5]) | MIC (Candida albicans [6]; [9]) | MIC (Kluyveromyces marxianus) | MIC ([Candida] zeylanoides; [10]) | MIC (Candida albicans [2]) | MIC (Candida albicans [4]) | MIC (Candida albicans [6]) | MIC ([Candida] zeylanoides)
1 | CCCCCCCCOc1ccc(N2CCN(c3ccc(C(=O)N[C@H]4CCCNC(=O)[C@@H]5C[C@H](N=C(N)N)CN5C(=O)[C@H]([C@@H](C)O)NC(=O)[C@H](CCc5ccc(O)c(C(=O)CN)c5)NC(=O)[C@@H]5C[C@@H](O)CN5C(=O)[C@H]([C@@H](C)O)NC4=O)cc3)CC2)cc1 (X3-[Orn]T[Hyp][hTyr(3-COCH2NH2)]T[Pro(cis-4-guanidino)]; lactam 1-C) | 0.1 µg/mL (≈ 0.0826 µM) | 6.25 µg/mL (≈ 5.16 µM) | 0.39 µg/mL (≈ 0.322 µM) | 6.25 µg/mL (≈ 5.16 µM) | 0.78 µg/mL (≈ 0.644 µM) | 0.78 µg/mL (≈ 0.644 µM) | 0.78 µg/mL (≈ 0.644 µM) | 0.39 µg/mL (≈ 0.322 µM) | 0.78 µg/mL (≈ 0.644 µM) | 0.78 µg/mL (≈ 0.644 µM) | 3.12 µg/mL (≈ 2.58 µM) |  |  |  | 
2 | CCCCCCCCOc1ccc(-c2ccc(-c3ccc(C(=O)N[C@H]4CCCNC(=O)[C@@H]5C[C@H](N)CN5C(=O)[C@H]([C@@H](C)O)NC(=O)[C@H](CCc5ccc(O)c(C(=O)CN)c5)NC(=O)[C@@H]5CCCN5C(=O)[C@H]([C@@H](C)O)NC4=O)cc3)cc2)cc1 (X7-[Orn]TP[hTyr(3-COCH2NH2)]T[Pro(4S-NH2)]; lactam 1-C) | 0.1 µg/mL (≈ 0.0874 µM) | 25 µg/mL (≈ 21.8 µM) | 0.78 µg/mL (≈ 0.682 µM) | 12.5 µg/mL (≈ 10.9 µM) | 0.78 µg/mL (≈ 0.682 µM) | 1.56 µg/mL (≈ 1.36 µM) | 0.78 µg/mL (≈ 0.682 µM) | 0.78 µg/mL (≈ 0.682 µM) | 0.78 µg/mL (≈ 0.682 µM) | 0.78 µg/mL (≈ 0.682 µM) | 0.78 µg/mL (≈ 0.682 µM) |  |  |  | 
3 | CCCCCOc1ccc(-c2ccc(-c3ccc(C(=O)N[C@H]4CCCNC(=O)[C@@H]5C[C@H](N=C(N)N)CN5C(=O)[C@H]([C@@H](C)O)NC(=O)[C@H](CCc5ccc(O)c(C(=O)CN)c5)NC(=O)[C@@H]5C[C@@H](O)CN5C(=O)[C@H]([C@@H](C)O)NC4=O)cc3)cc2)cc1 (stereo in doubt; 1) | 0.2 µg/mL (≈ 0.172 µM) | 6.25 µg/mL (≈ 5.39 µM) |  | 12.5 µg/mL (≈ 10.8 µM) | 0.2 µg/mL (≈ 0.172 µM) |  | 1.56 µg/mL (≈ 1.34 µM) | 0.2 µg/mL (≈ 0.172 µM) |  | 1.56 µg/mL (≈ 1.34 µM) |  | 0.2 µg/mL (≈ 0.172 µM) | 0.2 µg/mL (≈ 0.172 µM) | 0.2 µg/mL (≈ 0.172 µM) | 0.39 µg/mL (≈ 0.336 µM)
4 | CCCCCOc1ccc(-c2ccc(-c3ccc(C(=O)N[C@H]4CCCNC(=O)[C@@H]5C[C@H](N=C(N)N)CN5C(=O)[C@H]([C@@H](C)O)NC(=O)[C@H](CCc5ccc(O)c(C(=O)CN)c5)NC(=O)[C@@H]5CCCN5C(=O)[C@H]([C@@H](C)O)NC4=O)cc3)cc2)cc1 ({pTerphenylCO(4''-OnC5H11)}-[Orn]TP[hTyr(3-COCH2NH2)]T[Pro(cis-4-guanidino)]; lactam 1-C) | 0.1 µg/mL (≈ 0.0874 µM) | 25 µg/mL (≈ 21.8 µM) | 0.39 µg/mL (≈ 0.341 µM) | 25 µg/mL (≈ 21.8 µM) | 0.2 µg/mL (≈ 0.175 µM) | 0.39 µg/mL (≈ 0.341 µM) | 0.39 µg/mL (≈ 0.341 µM) | 0.2 µg/mL (≈ 0.175 µM) | 0.2 µg/mL (≈ 0.175 µM) | 1.56 µg/mL (≈ 1.36 µM) | 0.39 µg/mL (≈ 0.341 µM) |  |  |  | 
5 | CCCCCCCCOc1ccc(N2CCN(c3ccc(C(=O)N[C@H]4CCCNC(=O)[C@@H]5C[C@H](N)CN5C(=O)[C@H]([C@@H](C)O)NC(=O)[C@H](CCc5ccc(O)c(C(=O)CN)c5)NC(=O)[C@@H]5C[C@@H](O)CN5C(=O)[C@H]([C@@H](C)O)NC4=O)cc3)CC2)cc1 (X3-[Orn]T[Hyp][hTyr(3-COCH2NH2)]T[Pro(4S-NH2)]; lactam 1-C) | 0.1 µg/mL (≈ 0.0856 µM) | 1.56 µg/mL (≈ 1.34 µM) | 0.2 µg/mL (≈ 0.171 µM) | 6.25 µg/mL (≈ 5.35 µM) | 0.1 µg/mL (≈ 0.0856 µM) | 0.1 µg/mL (≈ 0.0856 µM) | 0.2 µg/mL (≈ 0.171 µM) | 0.1 µg/mL (≈ 0.0856 µM) | 0.1 µg/mL (≈ 0.0856 µM) | 1.56 µg/mL (≈ 1.34 µM) | 0.1 µg/mL (≈ 0.0856 µM) |  |  |  | 
6 | CCCCCCCCN1CCN(c2ccc(-c3ccc(C(=O)N[C@H]4CCCNC(=O)[C@@H]5C[C@H](C(=O)CN)CN5C(=O)[C@H]([C@@H](C)O)NC(=O)[C@H](CCc5ccc(O)c(C(=O)CN)c5)NC(=O)[C@@H]5CCCN5C(=O)[C@H]([C@@H](C)O)NC4=O)cc3)cc2)CC1 (X5-[Orn]TP[hTyr(3-COCH2NH2)]T[X6]; lactam 1-C) | 0.1 µg/mL (≈ 0.0849 µM) | 25 µg/mL (≈ 21.2 µM) | 0.78 µg/mL (≈ 0.662 µM) | 25 µg/mL (≈ 21.2 µM) | 0.39 µg/mL (≈ 0.331 µM) | 0.39 µg/mL (≈ 0.331 µM) | 1.56 µg/mL (≈ 1.32 µM) | 0.39 µg/mL (≈ 0.331 µM) | 0.39 µg/mL (≈ 0.331 µM) | 1.56 µg/mL (≈ 1.32 µM) | 0.2 µg/mL (≈ 0.17 µM) |  |  |  | 
